For series [1] the following is noted: rcm bond, 15-membered ring, Zhan 1b, 1,2-DCE.
Series [2] concerns the target T1, GT1a D168A NS3/4A protease (UniProt P27958, D1194A, species not given).
T1 construct: rows headed: Ki (nM) D168A; Ki D168A; other: D168A variant
It counts as biochemical, Hepatitis C virus. In short, it runs like this: (§1)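 NS3/4A protease (2 nM; wild-type GT1a or D168A) pre-incubated 1 h at room temperature with increasing inhibitor in 50 mM Tris pH 7.5, 5% glycerol, 10 mM DTT, 0.6 mM LDAO, 4% DMSO. Ki from three independent data sets per construct; ΔG=RTlnKi.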

In series [3] the target is GT1a D168A NS3/4A protease. It counts as biochemical, Hepatitis C virus. Particulars: fold change in Ki, D168A relative to WT. The gist of the method: as §1
For series [4], the target named is T2, wild-type GT1a NS3/4A protease (UniProt P27958).
T2 construct: Ki WT; other: wild-type HCV NS3/4A protease
It counts as biochemical, Hepatitis C virus. The gist of the method:
as §1

The test system of series [5] is wild-type HCV replicon in Huh7 cells. The series can be described thus: Cell-based drug susceptibility (replicon) assay, wild-type. Particulars: Hepatitis C virus, read-out: Replicon EC50 (nM) WT. In short, it runs like this: (§2)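 Replication is assessed in Huh7 cells electroporated with chimeric replicon RNA (Con1 1b luciferase reporter, H77 1a NS3) under escalating protease inhibitor concentrations, measuring relative light units at 96 h.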
In general terms: In antiviral work, replicon cells carry a viral genome segment that copies itself.

The test system of series [6] is HCV replicon A156T variant in Huh7 cells. The series can be described thus: microbe, parasite or virus in culture. Type of series: cell-based, Hepatitis C virus. Particulars: for EC50: Hepatitis C virus. The gist of the method: as §2
The test system of series [7] is HCV replicon D168A variant in Huh7 cells. The series can be described thus: microbe, parasite or virus in culture. Type of series: cell-based, Hepatitis C virus. Particulars: for EC50: Hepatitis C virus. The gist of the method: as §2
The subject of series [8] is HCV replicon R155K variant in Huh7 cells. The series can be described thus: microbe, parasite or virus in culture. Type of series: cell-based, Hepatitis C virus. Particulars: for EC50: Hepatitis C virus. The gist of the method: as §2
The subject of series [9] is HCV replicon D168V variant in Huh7 cells. The series can be described thus: microbe, parasite or virus in culture. Type of series: cell-based, Hepatitis C virus. In short, it runs like this:
as §2

Series [10] has as its target GT1a R155K NS3/4A protease (UniProt P27958, R1181K, species not given). Type of series: biochemical, Hepatitis C virus. The gist of the method: (§3)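 2 nM NS3/4A protease (GT1a, R155K and D168A constructs) pre-incubated 1 h at room temperature with increasing inhibitor concentrations in 50 mM Tris pH 7.5, 5% glycerol, 10 mM DTT, 0.6 mM LDAO, 4% DMSO. Three independent data sets per inhibitor and construct; ΔG of binding derived from Ki as ΔG=RTlnKi.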

Series [11] addresses GT1a R155K NS3/4A protease. Type of series: biochemical, Hepatitis C virus. Particulars: fold change in Ki, R155K relative to WT. In short, it runs like this: as §3
The target of series [12] is T3, GT1a D168A NS3/4A protease (UniProt P27958, C1185S/D1194A, species not given).
T3 construct: Ki (nM) GT1a D168A NS3/4A Protease
Type of series: biochemical, Hepatitis C virus. Particulars: read-out: Ki (nM) GT1a D168A NS3/4A Protease. The gist of the method:
as §1

Series [13] has as its target T4, wild-type GT1a NS3/4A protease (UniProt P27958, C1185S, species not given).
T4 construct: Ki (nM) GT1a WT NS3/4A Protease
It counts as biochemical, Hepatitis C virus. Particulars: read-out: Ki (nM) GT1a WT NS3/4A Protease. In short, it runs like this:
as §1

[14] abbreviates: read-out: Ki (nM) D168A, Table 8, linear inhibitors.
The mark [15] stands for this setting: read-out: Ki D168A, D168A variant.
Where [16] appears, read: read-out: Ki (nM) WT, Table 8, linear inhibitors.
Setting [17] is: read-out: Ki WT, wild-type HCV NS3/4A protease.
Setting [18] is: Huh-7, read-out: Replicon EC50 (nM) A156T, Table 9.
Where [19] appears, read: Huh-7, read-out: Replicon EC50 (nM) D168A, Table 9.
Where [20] appears, read: Huh-7, read-out: Replicon EC50 (nM) R155K, Table 9.
Where [21] appears, read: Hepatitis C virus, Huh-7, read-out: Replicon EC50 (nM) D168V, Table 9.
[22] abbreviates: read-out: Ki (nM) R155K, Table 8, linear inhibitors.
The mark [23] stands for this setting: read-out: Ki R155K, R155K variant.
Where [24] appears, read: Table 4, relative to WT replicon.

Like-named read-outs stand apart in the source and are kept apart here.

For `CCOC(=O)[C@@]12C[C@H]1/C=C\CCCCC[C@H](NC(=O)OC(C)(C)C)C(=O)N1C[C@H](Oc3nc4cc(OC)ccc4nc3C(F)(F)F)C[C@H]1C(=O)N2`, the ring closure, isolated yield in series [1] (from C=CCCCCC[C@H](NC(=O)OC(C)(C)C)C(=O)N1C[C@H](Oc2nc3cc(OC)ccc3nc2C(F)(F)F)C[C@H]1C(=O)N[C@]1(C(=O)OCC)C[C@H]1C=C, 6.7 mM, 70.0 °C, 5.0 h) was 70%.

In general, EC50 refers to the concentration that produces a half-maximal response. Consider `C=C[C@@H]1C[C@]1(NC(=O)[C@@H]1C[C@@H](Oc2nc3cc(OC)ccc3nc2C)CN1C(=O)[C@@H](NC(=O)OC1CCCC1)C(C)(C)C)C(=O)NS(=O)(=O)C1CC1` [Compound 11b, Cyclopentyl ((S)-1-((2S,4R)-2-(((1R,2S)-1-((cyclopropylsulfonyl)carbamoyl)-2-vinylcyclopropyl)carbamoyl)-4-((7-methoxy-3-methylquinoxalin-2-yl)oxy)pyrrolidin-1-yl)-3,3-dimethyl-1-oxobutan-2-yl)carbamate], for which the Ki turned out to be 144 ± 23 nM in series [2] (setting [14]); 144 ± 23 nM in series [2] (setting [15]); 9.2 ± 0.9 nM in [4] (setting [16]); 9.2 ± 0.9 nM in series [4] (setting [17]); 9.6 ± 0.9 nM in series [10] (setting [22]); 9.6 ± 0.9 nM in [10] (setting [23]). Also, in [3], the “Ki D168A (fold change)” value came out at 16. The EC50 came out at 10 nM in series [5] (Huh-7, Table 9); 164 nM in series [6] (setting [18]); 101 nM in [7] (setting [19]); 48 nM in [8] (setting [20]); 150 nM in [9] (setting [21]). In [6] (Table 9, relative to WT), the “Replicon EC50 (Fold change) A156T” value was “(16) fold”. The “Replicon EC50 (Fold change) D168A” value in series [7] (Table 9, relative to WT) was “(10) fold”. Moreover, the “Replicon EC50 (Fold change) R155K” value in [8] (Table 9, relative to WT) is given as “(4.8) fold”. Also, in [9] (Table 9, relative to WT), the “Replicon EC50 (Fold change) D168V” value is “(15) fold”. For the same compound, the “Ki R155K (fold change)” value in [11] came out at 1.0.

For `C=C[C@@H]1C[C@]1(NC(=O)[C@@H]1C[C@@H](Oc2nc3cc(OC)ccc3nc2Cl)CN1C(=O)[C@@H](NC(=O)OC1CCCC1)C(C)(C)C)C(=O)NS(=O)(=O)C1CC1` [Compound 11d, Cyclopentyl ((S)-1-((2S,4R)-4-((3-chloro-7-methoxyquinoxalin-2-yl)oxy)-2-(((1R,2S)-1-((cyclopropylsulfonyl)carbamoyl)-2-vinylcyclopropyl)carbamoyl)pyrrolidin-1-yl)-3,3-dimethyl-1-oxobutan-2-yl)carbamate], the Ki in series [2] (setting [14]) was 99 ± 10 nM; in series [2] (setting [15]), 99 ± 10 nM; in [4] (setting [16]), 3.8 nM; in series [4] (setting [17]), 3.8 ± 0.6 nM; in [10] (setting [22]), 4.1 ± 0.5 nM; in series [10] (setting [23]), 4.1 ± 0.5 nM. In series [3], the “Ki D168A (fold change)” value came to 26. Besides, the EC50 was 7.4 nM in series [5] (Huh-7, Table 9); 292 nM in series [6] (setting [18]); 50 nM in series [7] (setting [19]); 40 nM in [8] (setting [20]); 54 nM in series [9] (setting [21]). Further, the “Replicon EC50 (Fold change) A156T” value in [6] (Table 9, relative to WT) is “(40) fold”. Also, the “Replicon EC50 (Fold change) D168A” value in series [7] (Table 9, relative to WT) is “(6.8) fold”. The “Replicon EC50 (Fold change) R155K” value in series [8] (Table 9, relative to WT) is “(5.4) fold”. Besides, the “Replicon EC50 (Fold change) D168V” value in series [9] (Table 9, relative to WT) is recorded as “(7.3) fold”. For the same compound, the “Ki R155K (fold change)” value in series [11] is recorded as 1.1.

Take `C=C[C@@H]1C[C@]1(NC(=O)[C@@H]1C[C@@H](Oc2nc3cc(OC)ccc3nc2Cl)CN1C(=O)[C@@H](NC(=O)OC1CCCC1)C(C)(C)C)C(=O)NS(=O)(=O)C1(C)CC1` [Compound 12d, Cyclopentyl ((S)-1-((2S,4R)-4-((3-chloro-7-methoxyquinoxalin-2-yl)oxy)-2-(((1R,2S)-1-(((1-methylcyclopropyl)sulfonyl)carbamoyl)-2-vinylcyclopropyl)carbamoyl)pyrrolidin-1-yl)-3,3-dimethyl-1-oxobutan-2-yl)carbamate]: the Ki worked out at 51 ± 6 nM in series [2] (setting [14]); 51 ± 6 nM in series [2] (setting [15]); 3.9 nM in series [4] (setting [16]); 3.9 ± 0.7 nM in series [4] (setting [17]); 5.2 ± 0.8 nM in [10] (setting [22]); 5.2 ± 0.8 nM in series [10] (setting [23]). Besides, in [3], the “Ki D168A (fold change)” value was found to be 13. For the same compound, the EC50 in series [5] (Huh-7, Table 9) was 3.1 nM; in series [6] (setting [18]), 163 nM; in series [8] (setting [20]), 27 nM; in [9] (setting [21]) it was 12 to 38 nM; in [9] (read-out: Replicon EC50 (nM) D168V, Table 9), 23 nM. The “Replicon EC50 (Fold change) A156T” value in series [6] (Table 9, relative to WT) is recorded as “(53) fold”. The “Replicon EC50 (Fold change) D168A” value in [7] (Table 9, relative to WT) is “(8.1) fold”. In addition, the “Replicon EC50 (Fold change) R155K” value in series [8] (Table 9, relative to WT) is “(8.7) fold”. In addition, the “Replicon EC50 (Fold change) D168V” value in [9] (Table 9, relative to WT) is recorded as “(7.4) fold”. Moreover, the “Ki R155K (fold change)” value in series [11] worked out at 1.3.

Take `CC(C)(C)OC(=O)N[C@H]1CCCCC/C=C\[C@@H]2C[C@@]2(C(=O)NS(=O)(=O)C2CC2)NC(=O)[C@@H]2C[C@@H](Oc3nc4ccccc4nc3-c3cccs3)CN2C1=O` [Compound 18f, tert-Butyl ((2R,6S,13aS,14aR,16aS,Z)-14a-((cyclopropylsulfonyl)carbamoyl)-5,16-dioxo-2-((3-(thiophen-2-yl)quinoxalin-2-yl)oxy)-1,2,3,5,6,7,8,9,10,11,13a,14,14a,15,16,16a-hexadecahydrocyclopropa[e]pyrrolo[1,2-a][1,4]diazacyclopentadecin-6-yl)carbamate, reference compound]: the ring closure, isolated yield stood at 61% in [1] (from C=CCCCCC[C@H](NC(=O)OC(C)(C)C)C(=O)N1C[C@H](Oc2nc3ccccc3nc2-c2cccs2)C[C@H]1C(=O)N[C@]1(C(=O)NS(=O)(=O)C2CC2)C[C@H]1C=C, 3.5 mM, 70.0 °C) and 61% in [1] (3.5 mM). In addition, the Ki in [12] (Table 1) came out at 1820 nM; in [12] (Table 3), 1820 ± 347 nM; in series [13] (Table 1), 1.03 nM; in series [13] (Table 3), 1.03 nM. In addition, the EC50 in [5] (Huh-7, 96 h, Table 2, Huh7 cells, luciferase 96 h) was determined as 0.98 nM; in series [5] (Huh-7, Table 4), 0.98 nM; in [6] (Huh-7, 96 h, read-out: Replicon EC50 (nM) A156T, Table 2, Huh7 cells, luciferase 96 h) it was 256 nM; in series [6] (Huh-7, read-out: Replicon EC50 (nM) A156T, Table 4) it was 256 nM; in [7] (Huh-7, 96 h, read-out: Replicon EC50 (nM) D168A, Table 2, Huh7 cells, luciferase 96 h) it was 111 nM; in series [7] (Huh-7, read-out: Replicon EC50 (nM) D168A, Table 4), 111 nM. In addition, the half-maximal effective concentration (EC50) in [8] (Huh-7, 96 h, read-out: Replicon EC50 (nM) R155K, Table 2, Huh7 cells, luciferase 96 h) worked out at 21.7 nM; in series [8] (Huh-7, read-out: Replicon EC50 (nM) R155K, Table 4) it was 21.7 nM; in [9] (Hepatitis C virus, Huh-7, 96 h, read-out: Replicon EC50 (nM) D168V, Table 2, Huh7 cells, luciferase 96 h) it was 193 nM; in series [9] (Hepatitis C virus, Huh-7, read-out: Replicon EC50 (nM) D168V, Table 4), 193 nM. Also, the “Replicon EC50 (Fold change) A156T” value in series [6] (setting [24]) is “(261) fold”. The “Replicon EC50 (Fold change) D168A” value in [7] (setting [24]) is recorded as “(113) fold”. The “Replicon EC50 (Fold change) R155K” value in series [8] (setting [24]) is “(22) fold”. Further, the “Replicon EC50 (Fold change) D168V” value in [9] (setting [24]) was “(197) fold”.

“tert-Butyl 42R,6S,13aS,14aR,16aS,Z)-14a-((cyclopropylsulfonyl)carbamoyl)-2-((3-isopropyl-7-methoxyquinoxalin-2-yl)oxy)-5,16-dioxo-1,2,3,5,6,7,8,9,10,11,13a,14,14a,15,16,16a-hexadecahydrocyclopropa[e]pyrrolo[1,2-a][1,4]diazacyclopentadecin-6-yl)carbamate” yielded a ring closure, isolated yield in series [1] (6.6 mM, 70.0 °C) of 58%.
